Data taken from US7173062B2, “Method for the improvement of skin wrinkles using retinyl retinoate” (Enprani Co., Ltd., priority 2001, dated 2007).
“Also recorded” adds a separate entry of the source.

How the values were obtained:
[1] = biological target: T1, RAR β (Homo sapiens, UniProt P10826); assay: Activity for RAR β (CAT reporter in HaCaT cells); format: cell-based; conditions: 1 μM, CAT ELISA
T1 construct: expressed in transfected cells; host or cells: HaCaT
T1 sequence (P10826 1-455): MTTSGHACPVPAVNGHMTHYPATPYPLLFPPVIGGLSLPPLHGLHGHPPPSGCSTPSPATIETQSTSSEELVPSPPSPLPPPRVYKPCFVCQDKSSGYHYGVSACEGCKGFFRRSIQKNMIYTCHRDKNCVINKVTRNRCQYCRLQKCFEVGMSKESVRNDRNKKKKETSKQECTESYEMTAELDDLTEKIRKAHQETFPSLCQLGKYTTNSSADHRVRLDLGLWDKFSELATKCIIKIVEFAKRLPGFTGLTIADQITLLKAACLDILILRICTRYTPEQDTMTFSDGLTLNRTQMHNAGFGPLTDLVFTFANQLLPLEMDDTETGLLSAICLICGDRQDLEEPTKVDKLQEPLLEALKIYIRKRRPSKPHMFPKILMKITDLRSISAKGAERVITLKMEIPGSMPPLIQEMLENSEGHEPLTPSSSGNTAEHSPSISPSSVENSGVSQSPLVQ
Description: The effect of the retinol derivatives on the activity of RAR and RXR was examined as follows.
Experimental procedure: Recombinant gene of DR5-tk-CAT or DR1-tk-CAT comprising DR1 or DR5 as a response element of RAR/RXR, […] promoter, and CAT (chloramphenicol acetyl transferase) was suitably combined with a plasmid DNA that expresses RAR α, β, γ and cotransfected to HaCaT cell line, a skin cancer cell line, with Lipofectamin (GibcoBRL). Then, the cells were incubated in DMEM/10% FBS medium for 1 day, retinol derivative was added in a concentration of 1 μM, and the cells were incubated again for 1 day under the condition of 5% CO2 and 37° C. The cells were washed with phosphate-buffered salione (PBS). Proteins were extracted from each cell, the activity of β-galactosidase was assayed, and the amount of protein was measured to determine the transfection efficiency. Further, the degree of transcription for RAR or RXR was analyzed by CAT ELISA (Roche Molecular Biochemicals, Mannheim, Germany).

[2] = Photostability test (UV-A 356 nm, 1H NMR); format: physicochemical; set-up: key: 4 = No qualitative change in ^1H NMR spectrum; 3 = Minute noise but no qualitative change in ^1H NMR spectrum; 2 = Clear noise and some qualitative change in ^1H NMR spectrum; 1 = Qualitative confirmation is difficult in ^1H NMR spectrum; conditions: room temperature
Description: In order to examine photostability of the compound of formula (1) compared with retinol, 10 mg of sample was irradiated by UV-A light (wavelength 356 nm) using a Spectroline (Model CM-10; Fluorescence analysis cabinet; Spectronics Corporation, Westbury, N.Y., USA) at certain intervals of time at room temperature.

[3] = test system: skin of normal adults; assay: Test for skin irritation property (closed patch test); format: in vivo, human; conditions: closed patch test 24 hours, 20 adults
Description: In order to examine the skin irritation of the compound of formula (1), a patch test for the skin of normal adults was carried out. As the carrier, capryl caprylic triglyceride or the conventional O/W formulation was used, and twenty (20) adults per a group were tested for 24 hours.
The conventional O/W formulation used in the present experiment was prepared according to the following procedure.
Each of the aqueous part of Nos. 1–6 and the oily part of Nos. 7–13 as shown in the following Table 1 was heated to 75–80° C. to be thoroughly dissolved. The oily part was slowly added to the aqueous part and emulsification was performed for 5 minutes at 75–80° C. in a homomixer of 3000rpm. During the emulsification, the mixture was neutralized by the neutralizing agent of No. 14. After the first emulsification, the mixture was cooled, the retinal retaliate and fragrance of Nos. 15–16 were added at 50–55° C., and then the second emulsification was carried out for 3 minutes in a homomixer of 3000rpm. The mixture was cooled again to 27–30° C. to prepare the composition of O/W formulation.
From the experimental results, the irritation indexes were calculated according to the following Equation 1 and the results are represented in the following Table 2. Irritation index={Σ(Test Value×Number of Examinees Corresponding to the Test Value)/(Total Examinees×The Maximum Test Value)×100 Equation 1
Test Value +++: 5, ++: 4, +: 3, +−: 2, −:1
The degree of irritation was determined according to the following standards:
1.9 or less: Minute irritation, 2.0–2.9: Weak irritation, 3.0–3.9: Moderate irritation, 4.0 or more: Strong irritation

[4] = test system: Normal human fibroblast (Newborn, passage: 6); assay: Collagen synthesis test (Sircol collagen assay); format: cell-based; conditions: for increasing effect for collagen synthesis over control group treated only by DMEM: 2 days
Description: The effect for collagen synthesis of the compound of formula (1) was examined by using retinol, retinoic acid, and derivatives thereof as comparison compounds to confirm its utility as inhibitors for skin aging as follows. The results are represented in FIG. 2.
Cell: Normal human fibroblast (Newborn, passage: 6)
Medium: DMEM containing 10% FBS→DMEM free of FBS was used when cells were treated with samples.
Concentration: A range of concentration where the samples exert no toxicity to the cells was selected through a cell toxicity test ? 0.000001%, 0.00001%(w/v)
Procedure: 1×10^5 cells/well were inoculated into a 6-well plate. Cells were cultured to show about 79–80% confluent. Cells were treated with test samples and incubated for 2 days (FBS was not added to the medium when cells were treated with samples). After 2 days, cell medium and cells were separated from each other and respectively stored in a refrigerator. The cell extract was subjected to the protein analysis (BCA Protein Assay Kit, PIERCE 23225) and the medium was subjected to collagen analysis.
After the medium was removed, a small amount of PBS was added. Cells were scraped with a scraper. 1N NaOH (100 μl) and distilled water (400 μl) were added and the resulting mixture was allowed to stand overnight. Then, the protein analysis was carried out.
Collagen analysis: Analysis kit (Sircol Collagen assay kit—a dye that specifically combines with soluble collagen is used)
1.0 ml of Sircol Dye Reagent was introduced into each tube and mixed for 30 minutes. The mixture was centrifuged for 10 minutes at 5,000 g or more and the supernatant was removed. 1.0 ml Sircol Alkali Reagent was added, slowly mixed, and absorbance at 540 nm was measured. The amount of protein was converted into the value of collagen analysis (see: Mechanism of Aging and Development 73, 179–187, 1994).
After the above experiment, the increasing ratio for collagen synthesis of the test group over the control group treated only by DMEM was depicted in FIG. 2.

[5] = 0.075% in C.C.T (capryl caprylic triglyceride)

| SMILES | Relative activity against RAR β ([1]; Control = 1.0) | Relative activity against RAR β ([1]; Control = 1.0, listed as compound of formula (1)) | Photostability level ([2]; After 0 hour, 10 mg sample) | Photostability level ([2]; After 2 hours) | Photostability level ([2]; After 12 hours) | Photostability level ([2]; After 24 hours) | Photostability level ([2]; After 48 hours) | Irritation Index [3, 5] | Degree of Irritation ([3]; 0.075% in C.C.T) | Degree of Irritation ([3]; 0.3% in C.C.T) | Irritation Index ([3]; 0.3% in C.C.T) | Degree of Irritation ([3]; 0.3% in O/W Formulation) | Irritation Index ([3]; 0.3% in O/W Formulation) | Degree of Irritation ([3]; 0.55% in C.C.T) | Irritation Index ([3]; 0.55% in C.C.T) | effect for collagen synthesis (FIG. 2), comparison in words ([4]; 0.000001%, 0.00001%(w/v), human fibroblast) | collagen synthesis effect relative to retinol at the same concentration ([4]; 10^−6% (W/V)) | increasing effect for collagen synthesis over control group treated only by DMEM ([4]; 10^−6% (W/V), human fibroblast) [%] |
| --- | --- | --- | --- | --- | --- | --- | --- | --- | --- | --- | --- | --- | --- | --- | --- | --- | --- | --- |
| CC1=C(/C=C/C(C)=C/C=C/C(C)=C/COC(=O)/C=C(C)/C=C/C=C(C)/C=C/C2=C(C)CCCC2(C)C)C(C)(C)CCC1 [Compound of formula (1), Retinyl retinoate] | 1.5 | lower activity than retinoic acid but higher one than retinol; also recorded: low activity | 4 | 4 | 3 | 3 | 3 | 1.3 | Minute irritation (1.9 or less: Minute irritation) | Minute irritation (1.9 or less: Minute irritation) | 1.3 | Weak irritation (2.0–2.9: Weak irritation) | 2.0 | Minute irritation (1.9 or less: Minute irritation) | 1.3 | superior effect for collagen synthesis at low concentration to retinol or retinoic acid | about 10 times | 41.29 |
| CC1=C(/C=C/C(C)=C/C=C/C(C)=C/CO)C(C)(C)CCC1 [Retinol] | 1.3 | – | 4 | 3 | 2 | 1 | 1 | 2.5 | Weak irritation (2.0–2.9: Weak irritation) | – | – | – | – | – | – | – | – | 4.94 |
